Test results reported in publication PMC2951486 (Journal of Alzheimer's disease : JAD, 2010).

Key:
[1] = Parallel artificial membrane permeability assay; settings: PAMPA, pH 7.4
[2] = test system: synthetic Aβ peptide (Aβ1–42) aggregates; assay: Scatchard analysis of [3H]-AST binding to Aβ peptide aggregates; settings: amyloid aggregates
[3] = target: AD-PHFs (Homo sapiens, UniProt P10636); assay: Inhibition assay, displacement of [3H]-AST from AD-PHFs; settings: inhibition of [3H]-AST binding; Ki values only in Fig. 2E
AD-PHFs, sequence (P10636 623-758 limits assumed): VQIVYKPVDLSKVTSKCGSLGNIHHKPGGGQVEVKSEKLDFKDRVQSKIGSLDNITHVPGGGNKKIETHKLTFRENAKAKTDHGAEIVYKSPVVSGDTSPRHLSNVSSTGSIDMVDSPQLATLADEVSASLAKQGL

[4] = test system: AD-PHF immobilized on CM5 sensor chip; assay: Surface plasmon resonance on immobilized AD-PHFs; type: binding, human; settings: SPR, AD-PHFs versus aggregated amyloid
[5] = target: AD-PHF (Homo sapiens, UniProt P10636); assay: Double staining immunofluorescence of AD-PHFs with PHF-1 antibody and LNS; settings: LNS 0.1 %
AD-PHF, sequence (P10636 623-758 limits assumed): as above

[6] = target: heparin-induced tau filaments (HITF) (Homo sapiens, UniProt P10636); assay: Inhibition assay, displacement of [3H]-AST from HITF; settings: inhibition of [3H]-AST binding; Ki values only in Fig. 2E
heparin-induced tau filaments (HITF), sequence (P10636 1-441 isoform P10636-8): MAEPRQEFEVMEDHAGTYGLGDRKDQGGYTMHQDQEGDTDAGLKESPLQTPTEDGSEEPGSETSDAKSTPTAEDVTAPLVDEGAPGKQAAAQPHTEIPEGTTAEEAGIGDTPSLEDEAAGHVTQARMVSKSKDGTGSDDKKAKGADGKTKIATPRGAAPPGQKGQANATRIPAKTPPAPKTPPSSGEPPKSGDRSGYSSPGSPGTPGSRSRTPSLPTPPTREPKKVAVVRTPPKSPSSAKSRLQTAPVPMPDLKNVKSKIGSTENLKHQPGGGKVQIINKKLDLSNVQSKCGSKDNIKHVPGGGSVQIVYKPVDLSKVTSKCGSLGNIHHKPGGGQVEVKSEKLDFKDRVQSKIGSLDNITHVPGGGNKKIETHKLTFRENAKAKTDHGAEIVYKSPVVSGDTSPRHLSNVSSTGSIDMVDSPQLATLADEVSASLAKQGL

COc1ccc(CCN2CCC(Nc3nc4ccccc4n3Cc3ccc(F)cc3)CC2)cc1 [AST, astemizole]
Papp at 16 h [1]: 1450 nm/s | ratio Bmax/Kd [2]: 0.06 | affinity for AD-PHFs (relative Ki within the series) [3]: highest affinity for AD-PHFs | response curves (RU) on AD-PHFs surface compared to amyloid surface [4]: at least five times higher

Cc1c(OCC(F)(F)F)ccnc1C[S+]([O-])c1nc2ccccc2[nH]1 (stereo not shown) [LNS, lansoprazole]
staining of AD-PHF compared with PHF-1 immunostaining [5]: colocalization of the signals from LNS and PHF-1 mAb | affinity for HITF (relative Ki within the series) [6]: highest affinity for HITF | response curves (RU) on AD-PHFs surface compared to amyloid surface [4]: at least five times higher
